From patent US20240058324A1, “COMPOSITION FOR PREVENTION AND TREATING DEMENTIA THROUGH THE COMBINATION OF PDE5 INHIBITORS AND GLUCOCORTICOID RECEPTOR ANTAGONISTS” (ARIBIO CO., LTD., priority 2021, published 2024)

Columns and labels:
[1] = test system: Aβ42; experiment: Amyloid Beta 42 Human ELISA, amount of Aβ42 in RA-differentiated SH-SY5Y cells treated with Aβ1-42 oligomer; type: cell-based; settings: 24 h
Experimental: To determine the amount of change in amyloid beta, […] cells were dispensed into T-25 flask.
For cell adhesion and stabilization, cells were incubated for 24 hours in DMEM/F12 Complete Medium (HyClone) containing 10% FBS (HyClone) and 1% P/S (HyClone) at 37° C. under 5% CO2 condition in a CO2 incubator (Thermo Fisher Scientific Forma).
After 24 hours of cell dispensing, the cell culture medium is removed for neuron-like differentiation, and replaced with DMEM/F12 differentiation media containing 1% FBS (HyClone), 1% P/S (HyClone), 10 μM all-trans-retinoic acid (RA; Sigma--Aldrich, St. Louis, MO, USA).
On the third day of differentiation, the medium was replaced with a new DMEM/F12 differentiation medium. On the sixth day of differentiation, the medium of the untreated control group was replaced with a new DMEM/F12 differentiation medium and the medium of the sample treatment group was replaced with a various conditions by adding a new DMEM/F12 differentiation medium under various conditions.
Human Aβ1-42 (Abeam, Cambridge, MA, USA) was added upto 10 μM to DMEM/F12 Complete Medium (HyClone) containing 1% FBS (HyClone) and 1% P/S (HyClone) to form Aβ1-42 oligomer and left for 3 hours in a CO2 incubator (Thermo Fisher Scientific Forma) under 37° C. and 5% CO2 conditions to form Aβ1-42 oligomer.
In order to confirm the Aβ 1-42 change, the existing cell culture medium was removed from the RA-differentiated SH-SY5Y neuron-like cells, replaced with DMEM/F12 Complete Medium (HyClone) containing Aβ1-42 oligomer ([…] Fisher Scientific Forma) at 37° C. under 5% CO2 conditions to induce Aβ1-42 oligomer-induced cell damage.
In order to measure the amount of Aβ42 (pg/mL) in the cell, the cells were recovered and treated with the cell lysis buffer.
Thereafter, after centrifugation at 14,000 rpm 4° C. for 10 minutes, the supernatant was transferred to recover the protein. The amount of protein was quantified using the Pierce™ BCA Protein Assay Kit (Thermo Fisher Scientific). Then, the amount of Aβ42 in cells was measured using a Human Aβ42 ELISA Kit (Invitrogen).

[2] = test system: TNF-α; experiment: Real time RT-qPCR of pro-inflammatory cytokine TNF-α in LPS-treated IMG microglia cells; type: cell-based, mouse; settings: LPS 100 ng/ml
Experimental: (§1) The IMG cells, a mouse microglia cell line used in the experiments, were cultured, and maintained in DMEM complete medium (HyClone) containing 10% fetal bovine serum (FBS; Australian Orgin, HyClone, Logan, UT, USA) and 1% penicillin/streptomycin (P/S; HyClone) at 37° C. with 5% CO2 in a humidified CO2 incubator (311-TIF, Thermo Fisher Scientific Forma, MA, USA). Total 2×10^5 cells were seeded in each well of the 6-well plate and they were incubated for 24 h in the humidified CO2 incubator as mentioned above. Further, 100 ng/ml of LPS and the drugs, AR1001 2 μM and GR modulator (CORT-108297) 6, 12, 24, 36, 48 μM were treated individually or in combination.
(§2) The cells were scraped using a cell scraper, and 2 mL of the culture solution was collected in a 15 mL conical tube, It was centrifuged at 3,000 RPM for 5 min and the supernatant (culture solution) was discarded. The pellet was resuspended in 1 mL of Trizol and it was transferred to 1.5 mL microfuge tube. Further, 0.2 mL of chloroform was added and it was vortexed for 1 min. The microfuge tube was kept in a stand for 2 min at room temperature. After centrifugation at 12,000×g for 10 min at 4° C., the supernatant (approx 500 μL) separated in a fresh microfuge tube. Equal volume of isopropanol was added to the supernatant and mixed the solution well. It was put in the microfuge tube stand for 10 min at room temperature and thereafter, centrifuged at 12,000×g for 10 min at 4° C. The supernatant was discarded and the pellet was washed twice with 75% ethanol. The RNA pellet was dried and dissolved in 10 μL DEPC treated water. After quantification of the RNA, it was converted to cDNA following the PrimeScript™ II 1st strand cDNA Synthesis Kit (Takara) protocol.
(§3) The sample cDNAs were amplified with gene specific primers and SYBR green PCR master mix (ThermoFisher) in the model Quant Studio 5 Thermal cycler (Applied biosystems). The amplification conditions were as follows—polymerase activation at 50° C. for 2 min, predenaturation preceding at 95° C. for 10 min, total 40 cycles of denaturation at 95° C. for 15 sec, annealing at 60° C. for 30 sec and extension at 72° C. for 30 sec. The specific primer sequences are mentioned in Table-1.

[3] = test system: IL-1β; experiment: Real time RT-qPCR of pro-inflammatory cytokine IL-1β in LPS-treated IMG microglia cells; type: cell-based, mouse; settings: LPS 100 ng/ml
Experimental: as §1, §2, §3

[4] = CORT-108297 0.1 μM alone, SH-SY5Y, Aβ 10 μM
[5] = CORT-108297 0.3 μM alone, SH-SY5Y, Aβ 10 μM
[6] = CORT-108297 0.6 μM alone, SH-SY5Y, Aβ 10 μM
[7] = CORT-108297 1.2 μM alone, SH-SY5Y, Aβ 10 μM
[8] = CORT-108297 1.8 μM alone, SH-SY5Y, Aβ 10 μM
[9] = CORT-108297 2.4 μM alone, SH-SY5Y, Aβ 10 μM
[10] = CORT-108297 3.0 μM alone, SH-SY5Y, Aβ 10 μM

Question: What does the source list for `CCCOc1ccc(S(=O)(=O)N2CCN(CCO)CC2)cc1-c1nc2c(CCC)cn(CC)c2c(=O)[nH]1` [AR1001, mirodenafil]?
Answer: Aβ42 concentration Average concentration ([1]; AR1001 0.1 μM alone, SH-SY5Y neuron-like cells, Aβ1-42 oligomer 10 μM): 46.45 pg/mL; Aβ42 Reduction rate Average reduction rate ([1]; AR1001 0.1 μM alone, SH-SY5Y, Aβ 10 μM): 1.77%; TNFα Reduction (%) ([2]; AR1001 2 μM alone): 8.58%; IL1β Reduction (%) ([3]; AR1001 2 μM alone): 4.70%

Question: Which results are given for `CCOC[C@]12Cc3cnn(-c4ccc(F)cc4)c3C=C1CCN(S(=O)(=O)c1ccc(C(F)(F)F)cc1)C2` [CORT-108297]?
Answer: Aβ42 Reduction rate Average reduction rate [1, 4]: 4.26%; Aβ42 concentration Average concentration [1, 4]: 45.40 pg/mL; Aβ42 Reduction rate Average reduction rate [1, 5]: 4.24%; Aβ42 concentration Average concentration [1, 5]: 45.40 pg/mL; Aβ42 Reduction rate Average reduction rate [1, 6]: 6.88%; Aβ42 concentration Average concentration [1, 6]: 44.29 pg/mL; Aβ42 Reduction rate Average reduction rate [1, 7]: 9.34%; Aβ42 concentration Average concentration [1, 7]: 43.25 pg/mL; Aβ42 Reduction rate Average reduction rate [1, 8]: 11.97%; Aβ42 concentration Average concentration [1, 8]: 42.14 pg/mL; Aβ42 Reduction rate Average reduction rate [1, 9]: 17.91%; Aβ42 concentration Average concentration [1, 9]: 39.64 pg/mL; Aβ42 Reduction rate Average reduction rate [1, 10]: 31.34%; Aβ42 concentration Average concentration [1, 10]: 33.97 pg/mL; TNFα Reduction (%) ([2]; CORT-108297 6 μM alone): 9.41%; TNFα Reduction (%) ([2]; CORT-108297 12 μM alone): 15.52%; TNFα Reduction (%) ([2]; CORT-108297 24 μM alone): 23.86%; TNFα Reduction (%) ([2]; CORT-108297 36 μM alone): 37.30%; TNFα Reduction (%) ([2]; CORT-108297 48 μM alone): 52.51%; IL1β Reduction (%) ([3]; CORT-108297 6 μM alone): 7.02%; IL1β Reduction (%) ([3]; CORT-108297 12 μM alone): 8.38%; IL1β Reduction (%) ([3]; CORT-108297 24 μM alone): 17.88%; IL1β Reduction (%) ([3]; CORT-108297 36 μM alone): 35.86%; IL1β Reduction (%) ([3]; CORT-108297 48 μM alone): 57.37%
